{"source": "patent US20070254956A1", "about": "“Medicament for Therapeutic and/or Preventive Treatment of Restenosis or Reocclusion After Vascular Recanalization Operation” (priority 2003, published 2007)", "test_system": "proliferation of neointima", "test": "Test for inhibition of proliferation of neointima in a mouse model of femoral arterial angiopathy", "format": "in vivo", "conditions": "male C57BL/6 mouse, 1 mg/kg/day intraperitoneally for 10 days", "method": "As an angiopathy model resulting from a vascular recanalization operation, a treatment was carried out in which 0.015 inch spring wires were implanted into both […] of 20-25 g male C57BL/6 mouse under anesthesia, and placed for 1 minute to extend the arteries. After the operation, the compound represented by the formula (I) was administered 1 mg/kg/day intraperitoneally for 10 days. Blood vessels were extirpated 4 weeks after the operation and histopathologically examined. Influences between the drug administered group and non-administered group on the cross-section ratio of neointima and tunica media (neointima/tunica media) were compared."}
{"smiles": "O=C(Nc1cc(C(F)(F)F)cc(C(F)(F)F)c1)c1cc(Cl)ccc1O", "note": "[compound (I)]", "values": [{"measurement": "cross-section ratio of neointima and tunica media (neointima/tunica media)", "setting": "wire-injured femoral arteries, vessels examined 4 weeks after operation, non-administered group 2.01±0.15", "value": "1.01±0.27"}, {"measurement": "inhibition of the proliferation of neointima after the angiopathy", "setting": "4 weeks after operation", "value": "strongly inhibited the proliferation of neointima"}]}
